Experimental data as given in ChEMBL document CHEMBL1201862, “PubChem BioAssay data set” (2004).
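Following 48 hours of exposure in 96-well plates, responses at five concentrations were used to interpolate endpoints linearly. At the GI50, growth is halved.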 Calls of active or inactive are those of the source. Rule as the data show it: active = GI50 up to about 1.1 µM and inactive = higher.

Tests used:
Experiment in all cases: growth of human tumour cells (NCI), 48 h
A549 = test system: A549
ACHN = test system: ACHN
DU-145 = test system: DU-145
EKVX = test system: EKVX
HL-60 = test system: HL-60
HOP-62 = test system: HOP-62
LOX IMVI = test system: LOX IMVI
MDA-MB-231 = test system: MDA-MB-231
MDA-MB-435 = test system: MDA-MB-435
MOLT-4 = test system: MOLT-4
NCI/ADR-RES = test system: NCI/ADR-RES
OVCAR-3 = test system: OVCAR-3
OVCAR-5 = test system: OVCAR-5
OVCAR-8 = test system: OVCAR-8
RPMI-8226 = test system: RPMI-8226
SF-539 = test system: SF-539
SK-OV-3 = test system: SK-OV-3
SN12C = test system: SN12C
SNB-19 = test system: SNB-19
UACC-62 = test system: UACC-62

SMILES | GI50 (A549) | GI50 (ACHN) | GI50 (DU-145) | GI50 (EKVX) | GI50 (HL-60) | GI50 (HOP-62) | GI50 (LOX IMVI) | GI50 (MDA-MB-231) | GI50 (MDA-MB-435) | GI50 (MOLT-4) | GI50 (NCI/ADR-RES) | GI50 (OVCAR-3) | GI50 (OVCAR-5) | GI50 (OVCAR-8) | GI50 (RPMI-8226) | GI50 (SF-539) | GI50 (SK-OV-3) | GI50 (SN12C) | GI50 (SNB-19) | GI50 (UACC-62)
COc1cc(-c2cc(=O)c3c(OC)c(OC)c(OC)cc3o2)c(OC)c(OC)c1OC | > 75 µM (inactive) | > 75 µM (inactive) | > 75 µM (inactive) | > 75 µM (inactive) | 16.9 µM (inactive) | > 75 µM (inactive) | 63.5 µM (inactive) | 63.4 µM (inactive) | > 75 µM (inactive) | 40.2 µM (inactive) | 36.9 µM (inactive) | 51.2 µM (inactive) | > 75 µM (inactive) | > 75 µM (inactive) | 25 µM (inactive) | > 75 µM (inactive) | > 75 µM (inactive) | > 75 µM (inactive) | > 75 µM (inactive) | 42.5 µM (inactive)
CCOC(=O)C1=C(C)N(c2ccc(C)cc2)C2(O)C=CC(O)=C3C(=O)c4ccccc4C(=O)C312 (configuration not stated) | 37.8 µM (inactive) | 22.7 µM (inactive) | 23.6 µM (inactive) | 39.3 µM (inactive) | < 0.01 µM (active) | > 100 µM (inactive) | 25.2 µM (inactive) | 34.4 µM (inactive) | 36.2 µM (inactive) | 0.374 µM (active) | 8.24 µM (inactive) | 34.9 µM (inactive) | 54.2 µM (inactive) | 21.6 µM (inactive) | 11.1 µM (inactive) | 22.2 µM (inactive) | 35.7 µM (inactive) | 32.4 µM (inactive) | 24.4 µM (inactive) | 33.1 µM (inactive)
CN(C)c1ccc(/C=C/C=c2/c3ccccc3n3c2cc(-c2ccccc2)[n+]3C)cc1 | 0.26 µM (active) | 0.218 µM (active) | 0.0931 µM (active) | 0.254 µM (active) | 0.075 µM (active) | 0.303 µM (active) | 0.105 µM (active) | 0.466 µM (active) | 0.151 µM (active) | 0.0881 µM (active) | 3.43 µM (inactive) | 0.0746 µM (active) | 0.478 µM (active) | 0.102 µM (active) | 0.149 µM (active) | 0.171 µM (active) | 0.348 µM (active) | 0.243 µM (active) | 0.127 µM (active) | 0.217 µM (active)
C#C[C@]1(O)CC[C@H]2[C@@H]3CCC4=C/C(=N\OCCN5CCCC5)CC[C@]4(C)[C@H]3CC[C@@]21C | 15.7 µM (inactive) | 17 µM (inactive) | 19 µM (inactive) | 12.9 µM (inactive) | 5.35 µM (inactive) | 10.9 µM (inactive) | 11.5 µM (inactive) | 19.2 µM (inactive) | 3 µM (inactive) | 6.14 µM (inactive) | 9.95 µM (inactive) | 10.9 µM (inactive) | 19.2 µM (inactive) | 17.1 µM (inactive) | 3.34 µM (inactive) | 7.46 µM (inactive) | 19.5 µM (inactive) | 16.7 µM (inactive) | 15.3 µM (inactive) | 10.4 µM (inactive)
[O-][n+]1onc2c1CCC(=N\O)/C2=N/Nc1ccccc1 | > 100 µM (inactive) | > 100 µM (inactive) | > 100 µM (inactive) | > 100 µM (inactive) | 49.4 µM (inactive) | > 100 µM (inactive) | > 100 µM (inactive) | > 100 µM (inactive) | > 100 µM (inactive) | > 100 µM (inactive) | > 100 µM (inactive) | > 100 µM (inactive) | > 100 µM (inactive) | > 100 µM (inactive) | > 100 µM (inactive) | > 100 µM (inactive) | > 100 µM (inactive) | > 100 µM (inactive) | > 100 µM (inactive) | > 100 µM (inactive)
CN(C)c1cccc(F)c1C(=O)NC(=O)Nc1ccc(Cl)cc1 | 5.48 µM (inactive) | 4.79 µM (inactive) | 4.03 µM (inactive) | 4.29 µM (inactive) | 0.533 µM (active) | 5.2 µM (inactive) | 3.01 µM (inactive) | 14.8 µM (inactive) | 0.118 µM (active) | 1.62 µM (inactive) | 3.21 µM (inactive) | 2.09 µM (inactive) | 8.09 µM (inactive) | 5.19 µM (inactive) | 1.81 µM (inactive) | 3.15 µM (inactive) | 3.75 µM (inactive) | 8.83 µM (inactive) | > 26.1 µM (inactive) | 2.38 µM (inactive)
N#Cc1nc(-c2ccc(-c3nc(C#N)c(N)o3)cc2)oc1N | > 10 µM (inactive) | > 10 µM (inactive) | > 10 µM (inactive) | > 10 µM (inactive) | > 10 µM (inactive) | > 10 µM (inactive) | > 10 µM (inactive) | > 10 µM (inactive) | > 10 µM (inactive) | > 10 µM (inactive) | > 10 µM (inactive) | – | – | > 10 µM (inactive) | > 10 µM (inactive) | > 10 µM (inactive) | > 10 µM (inactive) | > 10 µM (inactive) | > 10 µM (inactive) | > 10 µM (inactive)
CCOC(=O)[C@@H]1ON2O[C@@H](OC3CCCC3(c3ccccc3)c3ccccc3)C[C@H]3OC(=O)[C@@H]1C32 (some centres not stated) | < 0.01 µM (active) | 19.5 µM (inactive) | 22.6 µM (inactive) | > 100 µM (inactive) | 23.2 µM (inactive) | 31 µM (inactive) | 37.8 µM (inactive) | 25.2 µM (inactive) | 16.8 µM (inactive) | 29.9 µM (inactive) | 34.4 µM (inactive) | 23.4 µM (inactive) | 20.9 µM (inactive) | 32.8 µM (inactive) | 35.6 µM (inactive) | 24.9 µM (inactive) | 86.5 µM (inactive) | 32.8 µM (inactive) | – | 19.1 µM (inactive)
NNC(=O)c1cccc2c1Oc1ccccc1S2 | – | > 100 µM (inactive) | 69 µM (inactive) | 23.8 µM (inactive) | 79.6 µM (inactive) | 95.9 µM (inactive) | 88.3 µM (inactive) | > 100 µM (inactive) | > 100 µM (inactive) | 55 µM (inactive) | 83.9 µM (inactive) | – | – | 98.6 µM (inactive) | > 100 µM (inactive) | > 100 µM (inactive) | 65.2 µM (inactive) | – | > 100 µM (inactive) | > 100 µM (inactive)
Nc1cc(CO)cc(Nc2c3ccccc3nc3ccccc23)c1 | 18.2 µM (inactive) | 17.2 µM (inactive) | 27.3 µM (inactive) | 16.8 µM (inactive) | > 100 µM (inactive) | 14.7 µM (inactive) | 16.7 µM (inactive) | 12.1 µM (inactive) | 17 µM (inactive) | 4.5 µM (inactive) | 17.7 µM (inactive) | 18.2 µM (inactive) | 16.7 µM (inactive) | 15.9 µM (inactive) | 29.8 µM (inactive) | 17.6 µM (inactive) | 16 µM (inactive) | 18.9 µM (inactive) | – | 17.4 µM (inactive)
